Read-outs that look alike come from different tables or passages of the source.
Legend:
glucagon receptor (GCGR) = target: T1, glucagon receptor (GCGR) (Homo sapiens, UniProt P47871); test: I125-glucagon binding assay (competition, GCGR membrane fractions)
T1 construct: expressed in transfected cells; host or cells: CHO-K1 cells overexpressing GCGR (membrane fractions)
Method: I^125-Glucagon Binding Assay
The binding affinity of each compound was evaluated by a competition assay with I^125-glucagon. GCGR membrane fractions were obtained from GCGR overexpressed CHO-K1 cells as a stock of 1 mg/ml concentration. To evaluate the IC50 of compounds binding to GCGR, GCGR membrane fractions were treated with compounds with a serial dilution. The membrane fractions were diluted to 7.5 microgram per well in 70 microliter assay buffer contained 50 mM Tris pH 7.4 and 0.5% (w/v) bovine serum albumin and added into 96 wells plate. The membrane fractions were then mixed with 10 microliter diluted compounds. After 5 minutes pre-incubation, 20 microliter I^125 labeled glucagon (Perkin Elmer) was added into each well at the final concentration of 0.0625 nM. The assay mixtures were incubated at 25° C. for 30 minutes and then transferred onto the Millipore MultiScreen GF/B Plate coated with 0.5% (w/v) Polyethyleneimine. The filter plate was washed with wash buffer contained 50 mM Tris pH 7.4 for 2 times, 300 microliter each time. The residual isotope was detected by Hidex CHAMELEON V micro-beta counter and the IC50 value of each compound binding to GCGR was calculated with non-linear regression.

[1] = target: T2, glucagon receptor (GCGR) overexpressed CHO-K1 cells or human primary hepatocytes (Homo sapiens, UniProt P47871); test: Glucagon cAMP inhibition assay (Cisbio cAMP Dynamic 2 HTRF); assay type: cell-based
T2 construct: expressed in transfected cells; host or cells: GCGR overexpressed CHO-K1 cells or human primary hepatocytes (endogenous receptor)
T2 sequence (P47871 26-477): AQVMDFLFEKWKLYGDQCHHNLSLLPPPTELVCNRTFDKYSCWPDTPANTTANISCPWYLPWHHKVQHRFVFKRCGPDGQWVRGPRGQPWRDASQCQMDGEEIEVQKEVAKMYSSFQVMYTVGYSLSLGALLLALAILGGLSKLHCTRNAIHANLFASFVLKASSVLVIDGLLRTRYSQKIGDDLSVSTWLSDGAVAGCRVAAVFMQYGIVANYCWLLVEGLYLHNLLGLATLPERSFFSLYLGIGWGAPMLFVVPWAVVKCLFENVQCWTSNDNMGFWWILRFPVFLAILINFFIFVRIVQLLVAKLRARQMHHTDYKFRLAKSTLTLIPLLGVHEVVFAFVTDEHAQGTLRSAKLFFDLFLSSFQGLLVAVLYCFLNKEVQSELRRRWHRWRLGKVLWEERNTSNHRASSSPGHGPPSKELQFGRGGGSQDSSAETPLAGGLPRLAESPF
Method: Glucagon cAMP Inhibition Assay
Downstream secondary messenger cAMP induced by glucagon was detected by Cisbio cAMP Dynamic 2 kit. Testing compounds were each prepared as a dimethyl sulfoxide (DMSO) solution at the concentration of 10 mM. To evaluate the potency of compounds in inhibiting the cAMP production, glucagon receptor (GCGR) overexpressed CHO-K1 cells or human primary hepatocytes were treated with compounds with a serial dilution. The cells were re-suspended in Hank's Balanced Salt solution (HBSS) contained 0.1% (w/v) bovine serum albumin and 800 nM 3-isobutyl-1-methylxanthine (IBMX) and seeded into low volume, 384 wells white plate. The diluted compounds were then added into the plate for 30 minutes pre-incubation where the final DMSO concentration was 1%. The cells were stimulated with glucagon at the concentration equaled to EC50 (an indicium of the concentration of a drug that gives half-maximal response) for 30 minutes at room temperature. After incubation, lysis buffer contain cAMP antibody and fluorescence acceptor were added into each well for additional 60 minutes incubation. Results were recorded by Molecular Devices SpectraMax Paradigm with the HTRF Detection Cartridges and the IC50 value of each compound in inhibiting the cAMP production was calculated with non-linear regression based on the amount of cAMP production.

[2] = competition with I125-glucagon 0.0625 nM, membrane fractions of GCGR overexpressed CHO-K1 cells
[3] = inhibition of glucagon (EC50 concentration) induced cAMP production

T1 sequence (P47871 26-477): as above

| SMILES | IC50 (glucagon receptor (GCGR); [2]) [µM] | IC50 cAMP [1, 3] [µM] | also measured |
| --- | --- | --- | --- |
| CC[C@H](C)[C@@H](CSc1ccc(-c2cc3ccccc3o2)cc1)Nc1ccc(C(=O)NCCC(=O)O)cc1 [Compound 5-3, 3-(4-(((2S,3S)-1-((4-(benzofuran-2-yl)phenyl)thio)-3-methylpentan-2-yl)amino)benzamido)propanoic Acid] | 0.4 | 0.9469 | – |
| O=C(O)CCNC(=O)c1ccc(N[C@@H](Cc2ccc3ccccc3c2)C(=O)Nc2ccc(-c3cc4ccccc4o3)cc2)cc1 [Compound 23-22, (S)-3-(4-((1-((4-(benzofuran-2-yl)phenyl)amino)-3-(naphthalen-2-yl)-1-oxopropan-2-yl)amino)benzamido)propanoic Acid] | – | – | IC50 (glucagon receptor (GCGR); uM): > 10 µM; IC50 cAMP [1]: 32.1 µM |
| Cc1cc(OC[C@@H](Cc2ccccc2)Nc2ccc(C(=O)NCCC(=O)O)cc2)cc(C)c1-c1ccc(C(F)(F)F)cc1 [Compound 2-1, (R)-3-(4-((1-((2,6-dimethyl-4′-(trifluoromethyl)-[1,1′-biphenyl]-4-yl)oxy)-3-phenylpropan-2-yl)amino)benzamido)propanoic Acid] | 0.266 | 0.3229 | – |
| CC(C)[C@@H](COc1ccc(-c2nnc(C(F)(F)F)o2)cc1)Nc1ccc(C(=O)NCCC(=O)O)cc1 [Compound 1-43, 3-(4-((3-methyl-1-(4-(5-(trifluoromethyl)-1,3,4-oxadiazol-2-yl)phenoxy)butan-2-yl)amino)benzamido)propanoic Acid] | 0.583 | >30 | – |
| CCCCC[C@H](Cc1ccc(-c2cc3ccccc3o2)cc1)Nc1ccc(C(=O)NCCC(=O)O)cc1 [Compound 19-6, (R)-3-(4-((1-(4-(benzofuran-2-yl)phenyl)heptan-2-yl)amino)benzamido)propanoic Acid] | – | – | IC50 (glucagon receptor (GCGR)): 0.158 µM; IC50 cAMP [1]: 0.632 µM |
| O=C(O)CCNC(=O)c1ccc(NC(COc2ccc(-c3cc4ccccc4o3)cc2)c2ccccc2)cc1 (stereo not drawn) [Compound 1-23, 3-(4-((2-(4-(benzofuran-2-yl)phenoxy)-1-phenylethyl)amino)benzamido) propanoic Acid] | 0.148 | 0.0398 | – |
| CC(C)COC[C@H](Cc1ccc(-c2cc3ccccc3o2)cc1)Nc1ccc(C(=O)NCCC(=O)O)cc1 [Compound 19-32, (S)-3-(4-((1-(4-(benzofuran-2-yl)phenyl)-3-isobutoxypropan-2-yl)amino)benzamido)propanoic Acid] | – | – | IC50 (glucagon receptor (GCGR)): 0.483 µM; IC50 cAMP [1]: 1.017 µM |
| CCCOC[C@H](Cc1ccc(-c2c(C)cc(C)cc2C)cc1)Nc1ccc(C(=O)NCCC(=O)O)cc1 [Compound 19-16, (S)-3-(4-((1-propoxy-3-(2′,4′,6′-trimethyl-[1,1′-biphenyl]-4-yl)propan-2-yl)amino)benzamido)propanoic Acid] | – | – | IC50 (glucagon receptor (GCGR)): 3.7 µM; IC50 cAMP [1]: 1.729 µM |
| CCCC[C@@H](COc1nnc(-c2ccc(C(F)(F)F)cc2)o1)Nc1ccc(C(=O)NCCC(=O)O)cc1 [Compound 22-5, (S)-3-(4-((1-((5-(4-(trifluoromethyl)phenyl)-1,3,4-oxadiazol-2-yl)oxy)hexan-2-yl)amino)benzamido)propanoic Acid] | – | – | IC50 (glucagon receptor (GCGR)): > 30 µM; IC50 cAMP [1]: >30 µM |
| CC(C)[C@H](COc1ccc(-c2nc3ccccc3s2)cc1)Nc1ccc(C(=O)NCCC(=O)O)cc1 [Compound 1-52, (R)-3-(4-((1-(4-(benzo[d]thiazol-2-yl)phenoxy)-3-methylbutan-2-yl)amino)benzamido)propanoic Acid] | 0.089 | 0.377 | – |
| CCC(C)[C@@H](COc1ccc(-c2ccc(C(F)(F)F)cc2)cc1)Nc1ccc(C(=O)NCCC(=O)O)cc1 (stereo partly drawn) [Compound 1-5, 3-(4-(((2S)-3-methyl-1-((4′-(trifluoromethyl)-[1,1′-biphenyl]-4-yl)oxy)pentan-2-yl)amino)benzamido)propanoic Acid] | 0.213 | 0.839 | – |
| CC(C)[C@@H](COc1ccc(-c2nc3ccccc3s2)cc1)Nc1ccc(C(=O)NCCC(=O)O)cc1 [Compound 1-32, (S)-3-(4-((1-(4-(benzo[d]thiazol-2-yl)phenoxy)-3-methylbutan-2-yl)amino)benzamido)propanoic Acid] | 0.057 | 0.152 | – |
| CC[C@H](C)[C@@H](COc1cc(C)c(-c2ccc(OC(F)(F)F)cc2)c(C)c1)Nc1ccc(C(=O)NCCC(=O)O)cc1 [Compound 2-8, 3-(4-(((2S,3S)-1-((2,6-dimethyl-4′-(trifluoromethoxy)-[1,1′-biphenyl]-4-yl)oxy)-3-methylpentan-2-yl)amino)benzamido)propanoic Acid] | 0.627 | 0.602 | – |
| CC(C)C[C@H](Nc1ccc(C(=O)NCCC(=O)O)cc1)C(=O)Nc1ccc(-c2cc3ccccc3[nH]2)cc1 [Compound 23-29, (S)-3-(4-((1-((4-(1H-indol-2-yl)phenyl)amino)-4-methyl-1-oxopentan-2-yl)amino)benzamido)propanoic Acid] | – | – | IC50 (glucagon receptor (GCGR)): 0.141 µM; IC50 cAMP ([1]; uM): >10 µM |

Further lines, with some results ahead:

| IC50 (glucagon receptor (GCGR); [2]) [µM] | IC50 cAMP [1, 3] [µM] | SMILES | also measured |
| --- | --- | --- | --- |
| 0.127 | 0.465 | CCCC[C@@H](COc1ccc(-c2ccc(C(F)(F)F)cc2)nc1)Nc1ccc(C(=O)NCCC(=O)O)cc1 [Compound 10-9, (S)-3-(4-((1-((6-(4-(trifluoromethyl)phenyl)pyridin-3-yl)oxy)hexan-2-yl)amino)benzamido)propanoic Acid] | – |
| 0.074 | 0.209 | CC(C)[C@@H](COc1cc(F)c(-c2ccc(Cl)cc2Cl)c(F)c1)Nc1ccc(C(=O)NCCC(=O)O)cc1 [Compound 7-11, (S)-3-(4-((1-((2′,4′-dichloro-2,6-difluoro-[1,1′-biphenyl]-4-yl)oxy)-3-methylbutan-2-yl)amino)benzamido)propanoic Acid] | – |
| 0.145 | 0.7309 | CC(C)C[C@@H](COc1cc(F)c(-c2cc3ccccc3o2)c(F)c1)Nc1ccc(C(=O)NCCC(=O)O)cc1 [Compound 7-10, (S)-3-(4-((1-(4-(benzofuran-2-yl)-3,5-difluorophenoxy)-4-methylpentan-2-yl)amino)benzamido)propanoic Acid] | – |
| 0.301 | 1.064 | CC(C)C[C@@H](COc1ccc(-c2ccc(Cl)cc2Cl)nc1)Nc1ccc(C(=O)NCCC(=O)O)cc1 [Compound 10-19, (S)-3-(4-((1-((6-(2,4-dichlorophenyl)pyridin-3-yl)oxy)-4-methylpentan-2-yl)amino)benzamido)propanoic Acid] | – |
| 0.445 | 4.036 | CC(C)[C@@H](COc1ccc(-c2ccc(Cl)cc2Cl)nc1)Nc1ccc(C(=O)NCCC(=O)O)cc1 [Compound 10-4, (S)-3-(4-((1-((6-(2,4-dichlorophenyl)pyridin-3-yl)oxy)-3-methylbutan-2-yl)amino)benzamido)propanoic Acid] | – |
| 0.145 | 0.365 | CC(C)[C@@H](COc1ccc(-c2ccc(Cl)cc2Cl)c(F)c1)Nc1ccc(C(=O)NCCC(=O)O)cc1 [Compound 8-9, (S)-3-(4-((1-((2′,4′-dichloro-2-fluoro-[1,1′-biphenyl]-4-yl)oxy)-3-methylbutan-2-yl)amino)benzamido)propanoic Acid] | – |
| 0.501 | 19.185 | CC(C)C[C@@H](COc1cnc(-c2ccc(C(F)(F)F)cc2Cl)nc1)Nc1ccc(C(=O)NCCC(=O)O)cc1 [Compound 12-9, (S)-3-(4-((1-((2-(2-chloro-4-(trifluoromethyl)phenyl)pyrimidin-5-yl)oxy)-4-methylpentan-2-yl)amino)benzamido)propanoic Acid] | – |
| 0.608 | >30 | CC(C)C[C@@H](COc1cnc(-c2cc3ccccc3o2)nc1)Nc1ccc(C(=O)NCCC(=O)O)cc1 [Compound 12-3, (S)-3-(4-((1-((2-(benzofuran-2-yl)pyrimidin-5-yl)oxy)-4-methylpentan-2-yl)amino)benzamido)propanoic Acid] | – |
| 0.111 | 0.112 | COc1cc(OC[C@@H](Nc2ccc(C(=O)NCCC(=O)O)cc2)C(C)C)ccc1-c1cc2ccccc2o1 [Compound 13-5, (S)-3-(4-((1-(4-(benzofuran-2-yl)-3-methoxyphenoxy)-3-methylbutan-2-yl)amino)benzamido)propanoic Acid] | – |
| 0.637 | 1.242 | CCC(C)[C@@H](Cc1noc(-c2ccc(C(C)(C)C)cc2)n1)Nc1ccc(C(=O)NCCC(=O)O)cc1 (stereo partly drawn) [Compound 21-2, 3-(4-(((2R)-1-(5-(4-(tert-butyl)phenyl)-1,2,4-oxadiazol-3-yl)-3-methylpentan-2-yl)amino)benzamido)propanoic Acid] | – |

Reference: patent US11384060B2, “Amide compounds and use thereof” (ALPHALA CO., LTD., priority 2017, dated 2022)
